Measurements published in patent US20260217712A1, “SOLID STATE FORMS OF MNK INHIBITORS” (4E Therapeutics, Inc., priority 2023, published 2026).
Values joined by “and” are separate entries in the source; they are usually repeats but may differ in a detail not shown here. Equal values may be shown once. Where a name gives a salt, the structure may show the parent alone. Blank lines part the entries; values can stand above or below the molecule they belong to.

How the values were obtained:
Type in all cases: physicochemical
[1] = Competitive slurries of Pattern 3 and Pattern 11, XRPD; conditions: for XRPD after 7 days / XRPD after 17 days: competitive slurry, solvent and temperature per sample; for XRPD after 7 days: 20 vol
Method: A solid mixture of Structure (I) Pattern 3 (from Lot B, 300 mg) and Pattern 11 (Sample 35-1, 300 mg) was mixed for 3 hours using a turbula mixer.
The solid mixture (30 mg) was suspended in solvent (dried with molecular sieves, 600 μL, 20 vol) and either stirred in the fridge, shaken at RT or 55° C. After 7 days, an aliquot of each suspension was analyzed by XRPD. Samples that were still a mixture of forms were placed back into fridge/shakers for a further 10 days and re-analyzed (results shown in Table 36).
Competitive slurry experiments at 55° C., along with one at 5° C., were repeated using a saturated solution as the solvent mixture to minimize dissolution that may have occurred at temperatures other than room temperature.
A saturated solution of THF/Water (9:1) (5 mL) with Structure (I) (from Lot B) was equilibrated at 55° C. overnight in a shaker. The solution was filtered using 0.45 μm nylon filter before use.
A solid mixture of Pattern 3 and Pattern 11 (30 mg) was suspended in the saturated solution (600 μL, 20 vol) and either stirred in the fridge (5° C.) or shaken at 55° C. After 1 day, aliquots of the suspensions were analyzed by XRPD. Both samples were placed back into fridge/shaker. After a total of 11 days, the samples were removed from fridge/shaker. Sample 38-2 was filtered before XRPD, Sample 38-1 was pipetted onto the XRPD holder and allowed to dry before analysis (solid passed through filter).

[2] = Static storage at 40° C./75% RH, XRPD and HPLC post storage; conditions: for HPLC purity post storage at 40° C./75% RH / XRPD post storage at 40° C./75% RH: 7 days; for stability to storage at 40° C./75% RH (in words): 40° C./75% RH (elevated temperature and humidity)
Method: Purity analysis was performed on an Agilent HP1100/Infinity II 1260 series system equipped with a diode array detector and using OpenLAB software. The full method details are provided below:
Poorly Crystalline Structure (I) (from Lot A, Free Form Pattern 1, 30 mg) was dissolved in 50 volumes of THF:Water 9:1 at 60° C. in 13 vials, stirring at 500 RPM (small amount of debris present). The solutions were then treated with 1.1 molar equivalents (90/180 μL) of selected counter-ions (Table 7). The resulting solutions were then cooled down to 5° C. at 0.1° C./min and were held at this temperature for 2 days. The suspensions were filtered and dried under suction for 20 min. The gummed sample was left with the cap off to promote crystallization. All solids obtained were initially analyzed by XRPD and stored in glass HPLC vials for subsequent analysis.
Any solids obtained were analyzed by XRPD, ^1H NMR, HPLC, TGA, DSC, XRPD post storage at 40° C./75% RH after 7 days & IC if necessary. Additional microscopy techniques (PLM & HSM) were used to complement the above analysis where appropriate.

[3] = as above; conditions: 7 days
[4] = High temperature solubility assessment; set-up: key: T = turbid solution; X = suspension; conditions: for observation at 60° C.: 30 mg in 50 volumes of the sample's solvent; for observation at 70° C. / observation at 80° C. / observation at 85° C.: 50 volumes
Method: Due to low solubility observed in the experiments of Example 2, a second solubility assessment of Structure (I) from Lot A was carried out using higher temperatures closer to the boiling points of the selected solvent systems (Table 10). Once at temperature, phosphoric acid or a base was added to either promote formation of a phosphate or Na/K salt.
Structure (I) (from Lot A, Free Form Pattern 1, 30 mg) was weighed into 6 HPLC vials and a stirrer bar added to each one. 50 volumes of different solvents were added to the samples according to Table 10 and the samples heated incrementally on a Polar Bear heating block, stirring at 400 RPM. Observations were noted as the temperature was increased, holding at each temperature for 10 minutes.

- XRPD after 7 days [1]: Pattern 11
SMILES: Cc1cc(Nc2cc(N)ncn2)c(=O)n2c1C(=O)NC21CCC2(CC2)CC1 [Pattern 36-6]

- XRPD after 7 days [1]: Pattern 11
SMILES: Cc1cc(Nc2cc(N)ncn2)c(=O)n2c1C(=O)NC21CCC2(CC2)CC1 [Pattern 36-7]

- XRPD after 7 days [1]: Pattern 11
SMILES: Cc1cc(Nc2cc(N)ncn2)c(=O)n2c1C(=O)NC21CCC2(CC2)CC1 [Pattern 36-2]

- HPLC purity post storage at 40° C./75% RH [2]: 99.4%
- XRPD post storage at 40° C./75% RH [2]: SUL P2
SMILES: Cc1cc(Nc2cc(N)ncn2)c(=O)n2c1C(=O)NC21CCC2(CC2)CC1 [Pattern 22-8]

- XRPD after 7 days [1]: Patterns 3 and 11
- XRPD after 17 days [1]: Pattern 11
SMILES: Cc1cc(Nc2cc(N)ncn2)c(=O)n2c1C(=O)NC21CCC2(CC2)CC1 [Pattern 36-15]

- XRPD after 7 days [1]: Pattern 11
SMILES: Cc1cc(Nc2cc(N)ncn2)c(=O)n2c1C(=O)NC21CCC2(CC2)CC1 [Pattern 36-12]

- XRPD after 7 days [1]: Pattern 11
SMILES: Cc1cc(Nc2cc(N)ncn2)c(=O)n2c1C(=O)NC21CCC2(CC2)CC1 [Pattern 36-5]

- XRPD after 7 days [1]: Pattern 11 + extra
SMILES: Cc1cc(Nc2cc(N)ncn2)c(=O)n2c1C(=O)NC21CCC2(CC2)CC1 [Pattern 36-11]

- XRPD after 7 days [1]: Patterns 3 and 11
- XRPD after 17 days [1]: Patterns 3 and 11
SMILES: Cc1cc(Nc2cc(N)ncn2)c(=O)n2c1C(=O)NC21CCC2(CC2)CC1 [Pattern 36-3]

- XRPD after 7 days [1]: Patterns 3 and 11
- XRPD after 17 days [1]: Patterns 3 and 11
SMILES: Cc1cc(Nc2cc(N)ncn2)c(=O)n2c1C(=O)NC21CCC2(CC2)CC1 [Pattern 36-13]

- XRPD after 1 day ([1]; slurry in saturated THF/Water (9:1) solution): Patterns 3 and 11 +
SMILES: Cc1cc(Nc2cc(N)ncn2)c(=O)n2c1C(=O)NC21CCC2(CC2)CC1 [Pattern 38-1]

- XRPD after 7 days [1]: Patterns 3 and 11
- XRPD after 17 days [1]: Patterns 3 and 11
SMILES: Cc1cc(Nc2cc(N)ncn2)c(=O)n2c1C(=O)NC21CCC2(CC2)CC1 [Pattern 36-14]

- XRPD after 7 days [1]: Pattern 11
SMILES: Cc1cc(Nc2cc(N)ncn2)c(=O)n2c1C(=O)NC21CCC2(CC2)CC1 [Pattern 36-1]

- XRPD after 7 days [1]: Pattern 11
SMILES: Cc1cc(Nc2cc(N)ncn2)c(=O)n2c1C(=O)NC21CCC2(CC2)CC1 [Pattern 36-4]

Second part, the molecule before the results:

SMILES: Cc1cc(Nc2cc(N)ncn2)c(=O)n2c1C(=O)NC21CCC2(CC2)CC1 [MES Pattern 2]
- HPLC purity post storage at 40° C./75% RH ([2]; listed as 22-6): 99.1%
- change of chemical purity on storage at 40° C./75% RH (in words) ([2]; listed as 21-1): Notable increase in purity after
- XRPD post storage at 40° C./75% RH ([3]; listed as 21-1): storage, with no observed impact
- XRPD post storage at 40° C./75% RH ([3]; listed as 22-6): Unchanged

SMILES: Cc1cc(Nc2cc(N)ncn2)c(=O)n2c1C(=O)NC21CCC2(CC2)CC1 [HCl Patterns 1 and 3]
- stability to storage at 40° C./75% RH (in words) [2]: stable to storage
- HPLC purity post storage at 40° C./75% RH ([2]; listed as 9-2): 97.7% purity
- XRPD post storage at 40° C./75% RH ([3]; listed as 9-2): No change by XRPD

SMILES: Cc1cc(Nc2cc(N)ncn2)c(=O)n2c1C(=O)NC21CCC2(CC2)CC1 [Fumarate Pattern 2]
- XRPD post storage at 40° C./75% RH [2]: loss of the additional peaks
- HPLC purity post storage at 40° C./75% RH ([2]; listed as 22-4): 99.2%
- XRPD post storage at 40° C./75% RH ([3]; listed as 22-4): FUM P2 (additional peaks lost),

SMILES: Cc1cc(Nc2cc(N)ncn2)c(=O)n2c1C(=O)NC21CCC2(CC2)CC1 [amorphous material]
- XRPD post storage at 40° C./75% RH [2]: converted to Free Form Pattern 3
- XRPD post storage at 40° C./75% RH ([3]; listed as 28-1): 7 days: Crystallization-Pattern 3 (WD)

SMILES: Cc1cc(Nc2cc(N)ncn2)c(=O)n2c1C(=O)NC21CCC2(CC2)CC1 [HCl Pattern 1]
- stability to storage at 40° C./75% RH (in words) ([2]; listed as Chloride Pattern 1): remained stable by XRPD & HPLC
- HPLC purity post storage at 40° C./75% RH ([2]; listed as 22-1): 99.3%
- XRPD post storage at 40° C./75% RH ([3]; listed as 22-1): Unchanged

SMILES: Cc1cc(Nc2cc(N)ncn2)c(=O)n2c1C(=O)NC21CCC2(CC2)CC1 [FUM Pattern 1]
- change of chemical purity on storage at 40° C./75% RH (in words) [2]: slight uplift
- stability to storage at 40° C./75% RH (in words) [2]: stable to storage
- HPLC purity post storage at 40° C./75% RH ([2]; listed as 9-10): 98.8%
- XRPD post storage at 40° C./75% RH ([3]; listed as 9-10): Fumarate Pattern 1

SMILES: Cc1cc(Nc2cc(N)ncn2)c(=O)n2c1C(=O)NC21CCC2(CC2)CC1 [Pattern 10-3]
- observation at 60° C. [4]: X
- observation at 70° C. [4]: X
- observation at 80° C. [4]: X
- observation at 85° C. [4]: X

SMILES: Cc1cc(Nc2cc(N)ncn2)c(=O)n2c1C(=O)NC21CCC2(CC2)CC1 [PHO Pattern 2]
- HPLC purity post storage at 40° C./75% RH [2]: crystallinity. 97.0% purity observed.
- XRPD post storage at 40° C./75% RH [2]: lost a significant amount of crystallinity

SMILES: Cc1cc(Nc2cc(N)ncn2)c(=O)n2c1C(=O)NC21CCC2(CC2)CC1 [Pattern 10-7]
- observation at 60° C. [4]: T
- observation at 70° C. [4]: T

SMILES: Cc1cc(Nc2cc(N)ncn2)c(=O)n2c1C(=O)NC21CCC2(CC2)CC1 [Pattern 10-6]
- observation at 60° C. [4]: T
- observation at 70° C. [4]: T

SMILES: Cc1cc(Nc2cc(N)ncn2)c(=O)n2c1C(=O)NC21CCC2(CC2)CC1 [Pattern 10-5]
- observation at 60° C. [4]: X
- observation at 70° C. [4]: X
- observation at 80° C. [4]: X
- observation at 85° C. [4]: X

SMILES: Cc1cc(Nc2cc(N)ncn2)c(=O)n2c1C(=O)NC21CCC2(CC2)CC1 [TOS Pattern 1]
- XRPD post storage at 40° C./75% RH [2]: large loss in crystallinity
- HPLC purity post storage at 40° C./75% RH ([2]; listed as 9-4): 99.3%

SMILES: Cc1cc(Nc2cc(N)ncn2)c(=O)n2c1C(=O)NC21CCC2(CC2)CC1 [Pattern 10-4]
- observation at 60° C. [4]: X
- observation at 70° C. [4]: X
- observation at 80° C. [4]: X
- observation at 85° C. [4]: X

SMILES: Cc1cc(Nc2cc(N)ncn2)c(=O)n2c1C(=O)NC21CCC2(CC2)CC1 [BES Pattern 1]
- stability to storage at 40° C./75% RH (in words) [2]: not stable to storage
- HPLC purity post storage at 40° C./75% RH ([2]; listed as 9-6): 98.8%

SMILES: Cc1cc(Nc2cc(N)ncn2)c(=O)n2c1C(=O)NC21CCC2(CC2)CC1 [Pattern 2]
- HPLC purity post storage at 40° C./75% RH ([2]; listed as 9-12): 98.8%

SMILES: Cc1cc(Nc2cc(N)ncn2)c(=O)n2c1C(=O)NC21CCC2(CC2)CC1 [HCl Pattern 4]
- stability to storage at 40° C./75% RH (in words) [2]: instability to storage
- HPLC purity post storage at 40° C./75% RH ([2]; listed as 13-2): frit are not present. 95.7% purity

SMILES: Cc1cc(Nc2cc(N)ncn2)c(=O)n2c1C(=O)NC21CCC2(CC2)CC1 [Pattern 10-1]
- observation at 60° C. [4]: X
- observation at 70° C. [4]: X

SMILES: Cc1cc(Nc2cc(N)ncn2)c(=O)n2c1C(=O)NC21CCC2(CC2)CC1 [Pattern 5]
- XRPD post storage at 40° C./75% RH ([3]; listed as 30-2): transition completed and 7 days: Change in form-Pattern 3

SMILES: Cc1cc(Nc2cc(N)ncn2)c(=O)n2c1C(=O)NC21CCC2(CC2)CC1 [Pattern 10-2]
- observation at 60° C. [4]: X
- observation at 70° C. [4]: X
- observation at 80° C. [4]: X
- observation at 85° C. [4]: X

SMILES: Cc1cc(Nc2cc(N)ncn2)c(=O)n2c1C(=O)NC21CCC2(CC2)CC1 [Pattern 10-8]
- observation at 60° C. [4]: T
- observation at 70° C. [4]: T
